# Reference: patent publication US11878970B2, “Allosteric chromenone inhibitors of phosphoinositide 3-kinase (PI3K) for the treatment of disease” (Petra Pharma Corporation, priority 2021, dated 2024)
# Columns and labels:
# [1] = biological target: T1, PI3K-α (PIK3CA) wild-type (WT), p110α/p85α complex (Homo sapiens, UniProt P42336); assay: PI3K-alpha kinase (PIK3CA) biochemical activity, ADP-Glo, wild-type
# T1 construct: Recombinant, catalytically active human full length PIK3KA Wild-type and H1047R mutant; 6×His (N); purchased EMD Millipore Sigma 14-602M
# From the text: (§1) PI3K-Alpha Kinase (PIK3CA) Activity, Wild-Type and H1047R Mutant and Determining IC50 Values for Inhibitors
# (§2) Recombinant, catalytically active human full length PIK3KA Wild-type and H1047R mutant were purchased as 1:1 complex of N-terminal 6×his tagged p110α (catalytic) and untagged p85α (regulatory subunit) from EMD Millipore Sigma (cat. no. 14-602M and 14-792M, respectively). PIP2diC8 (Avanti Polar Lipids Inc., cat. no. 850185) or Soy PI (Avanti Polar Lipids Inc., cat. No. 840044P) was used as lipid substrate. PIP2diC8 or PI lyophilized powder was dissolved in milliQ water to a concentration of 1 mM just before use. 10 mM stock compounds in DMSO were serially diluted 1:3 to generate a 10-point curve and plated using an acoustic liquid handler system (Echo 550 series instrument, Labcyte). A 10× intermediate compound plate (200 uM starting compound concentration and 10% DMSO) was prepared before starting the reaction. A typical reaction mixture (50 uL) comprised 40 mM HEPES buffer, pH 7.4, 25 mM MgCl2, 0.01% v/v triton-X-100, 1% v/v DMSO, 20 mM NaCl, 1-5 nM WT or H1047R PI3K protein, 20 uM ATP, and 50 uM PIP2diC8 or Soy PI. 1% DMSO buffer alone without test compound was employed as MAX control (full activity in the absence of any inhibitor), and no enzyme control was used to determine the level of background Adenosine 5′-diphosphate (ADP) (MIN control). First, Wild-type (WT) and H1047R mutant protein in kinase buffer with all components except ATP were incubated with or without compound at 27° C. for 1 h. After the pre-incubation, the reaction was initiated by the addition of 20 uL of 50 uM ATP (20 uM final concentration). The reaction was allowed to proceed until about 10% conversion of ATP (2 uM ADP) at 27° C. After that time, 5 uL of reaction was mixed with 5 uL of ADP-Kinase Glo Reagent (ADP-Glo Kinase assay kit, Promega cat. no. V9102) supplemented with MgCl2 10 mM to stop the reaction and deplete the remaining ATP for 40 min at room temperature. Then, 10 uL of Kinase Detection Reagent (ADP-Glo Kinase assay kit, Promega cat. no. V9102) was added to simultaneously convert ADP to ATP and allow the newly synthesized ATP to be measured using a luciferase/luciferin reaction. After 30 min at room temperature the light generated was measured using a luminometer (EnVision plate reader, Perkin Elmer). Process data through Genedata-Screener tool. Relative IC50 values are determined using luminescence units by calculating percent inhibition with respect to on-plate “MIN” and “MAX” controls. Data was analyzed using a 4-parameter nonlinear logistic equation (four-parameter logistic concentration-response curve): Y=bot+[(top−bot)/1+(x/IC50)slope] where Y=% inhibition, X=concentration yielding y % inhibition, Bottom=minimum value of y attained by curve, Top=maximum value of y attained by curve and Slope=steepness of curve at IC50. % Inh=[(median Max−x/median Max−median Min)]·100 IC50: concentration of compound that reduces a given response (ligand binding, enzyme response) by 50%. IC50 relative: concentration giving half the compound's maximum response.
# [2] = biological target: T2, PI3K-α (PIK3CA) H1047R mutant, p110α/p85α complex (Homo sapiens, UniProt P42336, H1047R); assay: PI3K-alpha kinase (PIK3CA) biochemical activity, ADP-Glo, H1047R mutant
# T2 construct: Recombinant, catalytically active human full length PIK3KA Wild-type and H1047R mutant; 6×His (N); purchased EMD Millipore Sigma 14-792M
# From the text: as §1, §2
# [3] = PIP2diC8 lipid substrate (footnote 1)
# T2 sequence (P42336 whole entry H1047R): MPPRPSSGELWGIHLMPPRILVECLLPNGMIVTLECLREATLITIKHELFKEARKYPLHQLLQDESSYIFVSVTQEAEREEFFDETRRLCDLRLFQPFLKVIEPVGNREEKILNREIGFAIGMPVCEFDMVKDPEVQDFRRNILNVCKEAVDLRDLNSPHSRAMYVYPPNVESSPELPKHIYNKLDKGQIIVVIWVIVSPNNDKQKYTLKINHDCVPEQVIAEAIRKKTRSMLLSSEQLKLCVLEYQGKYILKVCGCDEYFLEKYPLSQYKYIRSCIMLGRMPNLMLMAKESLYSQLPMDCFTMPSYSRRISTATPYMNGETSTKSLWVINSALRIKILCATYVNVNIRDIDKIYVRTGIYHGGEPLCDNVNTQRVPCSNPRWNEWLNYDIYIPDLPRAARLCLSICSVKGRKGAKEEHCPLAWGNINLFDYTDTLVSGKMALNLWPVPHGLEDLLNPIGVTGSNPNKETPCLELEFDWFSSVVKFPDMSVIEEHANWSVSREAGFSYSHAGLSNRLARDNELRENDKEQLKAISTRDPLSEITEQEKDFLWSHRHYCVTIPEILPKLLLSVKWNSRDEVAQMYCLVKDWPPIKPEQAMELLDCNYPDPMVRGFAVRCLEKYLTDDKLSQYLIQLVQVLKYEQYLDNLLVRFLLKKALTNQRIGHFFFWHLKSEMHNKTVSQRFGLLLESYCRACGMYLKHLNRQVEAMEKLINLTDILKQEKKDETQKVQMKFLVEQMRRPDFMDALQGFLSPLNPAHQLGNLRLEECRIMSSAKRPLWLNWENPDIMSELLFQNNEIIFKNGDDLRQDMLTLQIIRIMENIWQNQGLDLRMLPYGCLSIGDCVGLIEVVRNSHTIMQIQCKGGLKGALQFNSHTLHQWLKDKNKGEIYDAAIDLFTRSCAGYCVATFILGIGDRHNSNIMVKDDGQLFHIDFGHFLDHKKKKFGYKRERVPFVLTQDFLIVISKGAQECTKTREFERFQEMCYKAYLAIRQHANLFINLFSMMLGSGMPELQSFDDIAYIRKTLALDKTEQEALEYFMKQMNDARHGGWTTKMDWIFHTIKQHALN
# T2 sequence (P27986 whole entry partner): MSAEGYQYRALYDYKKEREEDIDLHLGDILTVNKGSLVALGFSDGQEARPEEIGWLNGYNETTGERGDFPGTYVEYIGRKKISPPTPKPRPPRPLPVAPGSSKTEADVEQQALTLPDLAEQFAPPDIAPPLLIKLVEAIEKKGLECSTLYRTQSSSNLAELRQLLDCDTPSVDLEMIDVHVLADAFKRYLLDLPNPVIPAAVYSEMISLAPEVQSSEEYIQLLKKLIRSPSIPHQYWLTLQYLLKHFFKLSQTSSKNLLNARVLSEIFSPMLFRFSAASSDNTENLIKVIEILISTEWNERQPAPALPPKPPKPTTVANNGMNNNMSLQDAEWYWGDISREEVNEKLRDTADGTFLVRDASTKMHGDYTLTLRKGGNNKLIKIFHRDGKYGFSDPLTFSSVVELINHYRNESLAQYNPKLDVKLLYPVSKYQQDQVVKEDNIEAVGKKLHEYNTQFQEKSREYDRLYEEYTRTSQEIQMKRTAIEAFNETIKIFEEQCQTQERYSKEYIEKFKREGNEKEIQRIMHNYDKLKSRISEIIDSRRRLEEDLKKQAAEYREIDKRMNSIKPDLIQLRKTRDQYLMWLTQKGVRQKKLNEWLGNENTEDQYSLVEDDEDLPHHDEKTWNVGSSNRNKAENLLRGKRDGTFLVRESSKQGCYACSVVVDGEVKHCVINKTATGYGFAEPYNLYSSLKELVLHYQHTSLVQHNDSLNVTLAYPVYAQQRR
SMILES,IC50 ([1]; Soy PI lipid substrate) [nM],IC50 ([2]; Soy PI lipid substrate) [nM],"IC50 [1, 3] [nM]","IC50 [2, 3] [nM]"
"Cc1cc(C(C)Nc2ccccc2C(=O)O)c2oc(-c3ncc4cc(C)[nH]c4n3)cc(=O)c2c1 (single isomer, unassigned) [Example 72, 2-[1-[6-Methyl-2-(6-methyl-7H-pyrrolo[2,3-d]pyrimidin-2-yl)-4-oxo-chromen-8-yl]ethylamino]benzoic acid]",500 to 1000,< 500,–,–
"Cc1cc(C(C)Nc2ccccc2C(=O)O)c2oc(-c3ccc4cc[nH]c4n3)cc(=O)c2c1 (centres unmarked) [Example 14, 2-[1-[6-Methyl-4-oxo-2-(1H-pyrrolo[2,3-b]pyridin-6-yl)chromen-8-yl]ethylamino]benzoic acid]",1000 to 5000,< 500,–,–
"Cc1cc(C(C)Nc2ccccc2C(=O)O)c2oc(-c3ccc4[nH]c(C(F)(F)F)cc4c3)cc(=O)c2c1 (centres unmarked) [Example 11, 2-[1-[6-Methyl-4-oxo-2-[2-(trifluoromethyl)-1H-indol-5-yl]chromen-8-yl]ethylamino]benzoic acid]",–,–,500 to 1000,500 to 1000
"Cc1cc(C(C)Nc2ccccc2C(=O)O)c2oc(-c3ccc4c(c3)CC(=O)N4C)cc(=O)c2c1 (single isomer, unassigned) [Example 62, 2-[1-[6-Methyl-2-(1-methyl-2-oxo-indolin-5-yl)-4-oxo-chromen-8-yl]ethylamino]benzoic acid]",1000 to 5000,< 500,–,–
"Cc1cc(C(C)Nc2ccccc2C(=O)O)c2oc(-c3cnc4cn(C)nc4c3)cc(=O)c2c1 (single isomer, unassigned) [Example 44, 2-[1-[6-Methyl-2-(2-methylpyrazolo[4,3-b]pyridin-6-yl)-4-oxo-chromen-8-yl]ethylamino]benzoic acid]",5000 to 10000,1000 to 5000,–,–
"Cc1cc(C(C)Nc2ccccc2C(=O)O)c2oc(-c3ccc4nccn4c3)cc(=O)c2c1 (single isomer, unassigned) [Example 73, 2-[1-(2-Imidazo[1,2-a]pyridin-6-yl-6-methyl-4-oxo-chromen-8-yl)ethylamino]benzoic acid]",1000 to 5000,< 500,–,–
"Cc1cc(C(C)Nc2ccccc2C(=O)O)c2oc(-c3cc4ccncc4o3)cc(=O)c2c1 (centres unmarked) [Example 152, 2-[1-(2-Furo[2,3-c]pyridin-2-yl-6-methyl-4-oxo-chromen-8-yl)ethylamino]benzoic acid]",1000 to 5000,< 500,–,–
"Cc1cc(C(C)Nc2ccccc2C(=O)O)c2oc(-c3ccc4cnncc4c3)cc(=O)c2c1 (single isomer, unassigned) [Example 47, 2-[1-(6-Methyl-4-oxo-2-phthalazin-6-yl-chromen-8-yl)ethylamino]benzoic acid]",1000 to 5000,< 500,–,–
"Cc1cc(C(C)Nc2ccccc2C(=O)O)c2oc(-c3ccn4c(C)nnc4c3)cc(=O)c2c1 (single isomer, unassigned) [Example 77, 2-[1-[6-Methyl-2-(3-methyl-[1,2,4]triazolo[4,3-a]pyridin-7-yl)-4-oxo-chromen-8-yl]ethylamino]benzoic acid]",5000 to 10000,< 500,–,–
"Cc1cc(C(C)Nc2ccccc2C(=O)O)c2oc(-n3ncc4ncccc43)cc(=O)c2c1 (single isomer, unassigned) [Example 48, 2-[1-(6-Methyl-4-oxo-2-pyrazolo[4,3-b]pyridin-1-yl-chromen-8-yl)ethylamino]benzoic acid]",< 500,< 500,–,–
"Cc1cc(C(C)Nc2ccccc2C(=O)O)c2oc(-c3ccc4nc(C)cn4c3)cc(=O)c2c1 (single isomer, unassigned) [Example 17, 2-[1-[6-Methyl-2-(2-methylimidazo[1,2-a]pyridin-6-yl)-4-oxo-chromen-8-yl]ethylamino]benzoic acid]",1000 to 5000,< 500,–,–
"COc1ccc2nc(-c3cc(=O)c4cc(C)cc(C(C)Nc5ccccc5C(=O)O)c4o3)cn2c1 (single isomer, unassigned) [Example 2, 2-[1-[2-(6-Methoxyimidazo[1,2-a]pyridin-2-yl)-6-methyl-4-oxo-chromen-8-yl]ethylamino]benzoic acid]",1000 to 5000,500 to 1000,–,–
"Cc1cc(C(C)Nc2ccccc2C(=O)O)c2oc(-c3ccc4nc(C)cn4c3)cc(=O)c2c1 (centres unmarked) [Example 16, 2-[1-[6-Methyl-2-(2-methylimidazo[1,2-a]pyridin-6-yl)-4-oxo-chromen-8-yl]ethylamino]benzoic acid]",1000 to 5000,< 500,–,–

# Other lines, results leading:
IC50 ([1]; Soy PI lipid substrate) [nM],IC50 ([2]; Soy PI lipid substrate) [nM],"IC50 [1, 3] [nM]","IC50 [2, 3] [nM]",SMILES
1000 to 5000,< 500,–,–,"Cc1cc(C(C)Nc2ccccc2C(=O)O)c2oc(-c3ccc4c(C#N)nn(C)c4c3)cc(=O)c2c1 (single isomer, unassigned) [Example 104, 2-[1-[2-(3-Cyano-1-methyl-indazol-6-yl)-6-methyl-4-oxo-chromen-8-yl]ethylamino]benzoic acid]"
1000 to 5000,< 500,–,–,"Cc1cc(C(C)Nc2ccccc2C(=O)O)c2oc(-c3ccc4c(n3)N(C)C(=O)C4)cc(=O)c2c1 (single isomer, unassigned) [Example 141, 2-[1-[6-Methyl-2-(1-methyl-2-oxo-3H-pyrrolo[2,3-b]pyridin-6-yl)-4-oxo-chromen-8-yl]ethylamino]benzoic acid]"
500 to 1000,< 500,–,–,"Cc1cc(C(C)Nc2ccccc2C(=O)O)c2oc(-c3ccc4nn(C)cc4n3)c(C)c(=O)c2c1 (single isomer, unassigned) [Example 130, 2-[1-[3,6-Dimethyl-2-(2-methylpyrazolo[4,3-b]pyridin-5-yl)-4-oxo-chromen-8-yl]ethylamino]benzoic acid]"
1000 to 5000,< 500,–,–,"Cc1cc(C(C)Nc2ccccc2C(=O)O)c2oc(-c3ccc4cc(C)nn4c3)cc(=O)c2c1 (single isomer, unassigned) [Example 134, 2-[1-[6-Methyl-2-(2-methylpyrazolo[1,5-a]pyridin-6-yl)-4-oxo-chromen-8-yl]ethylamino]benzoic acid]"
1000 to 5000,< 500,–,–,"Cc1cc(C(C)Nc2ccccc2C(=O)O)c2oc(-c3cccc4c3OCO4)c(C)c(=O)c2c1 (single isomer, unassigned) [Example 92, 2-[1-[2-(1,3-Benzodioxol-4-yl)-3,6-dimethyl-4-oxo-chromen-8-yl]ethylamino]benzoic acid]"
< 500,< 500,–,–,"Cc1cc(C(C)Nc2ccc(Cl)nc2C(=O)O)c2oc(-c3ccc4nn(C)cc4c3)cc(=O)c2c1 (single isomer, unassigned) [Example 206, 6-Chloro-3-[1-[6-methyl-2-(2-methylindazol-5-yl)-4-oxo-chromen-8-yl]ethylamino]pyridine-2-carboxylic acid]"
1000 to 5000,< 500,–,–,"Cc1cc(C(C)Nc2ccccc2C(=O)O)c2oc(-c3ccc4c(cnn4CC(C)(C)O)c3)cc(=O)c2c1 (single isomer, unassigned) [Example 123, 2-[1-[2-[1-(2-Hydroxy-2-methyl-propyl)indazol-5-yl]-6-methyl-4-oxo-chromen-8-yl]ethylamino]benzoic acid]"
500 to 1000,< 500,–,–,"Cc1cc(C(C)Nc2ccccc2C(=O)O)c2oc(-c3cn(C)c4ccccc34)cc(=O)c2c1 (single isomer, unassigned) [Example 143, 2-[1-[6-Methyl-2-(1-methylindol-3-yl)-4-oxo-chromen-8-yl]ethylamino]benzoic acid]"
> 10000,1000 to 5000,–,–,"Cc1cc(C(C)Nc2ccccc2C(=O)O)c2oc(-c3ccc4nnc(C(C)C)n4c3)cc(=O)c2c1 (single isomer, unassigned) [Example 78, 2-[1-[2-(3-Isopropyl-[1,2,4]triazolo[4,3-a]pyridin-6-yl)-6-methyl-4-oxo-chromen-8-yl]ethylamino]benzoic acid]"
